In ChEMBL document CHEMBL3507680, “University of Dundee, Gates Library screen for HepG2 cell viability”:

Assay: Human HepG2 cell viability assay in 384 well format
Assay type: toxicity, cell-based
Set-up: dose 125 nL, time 70.5 hour; concentration not given beside the values
Conditions: HepG2 cells, read-out: Inhibition

CC(C)(C)c1cnc(CN2CCCS(=O)(=O)CC2)o1
cytotoxicity at 70.5 h: -1.34%

CN1CCN(C2CCN(Cc3noc(C4CC4)n3)CC2)C1=O
cytotoxicity at 70.5 h: -1.19%

COCCN(c1cc(C)nc2nc(C(F)(F)F)nn12)C1CCCC1
cytotoxicity at 70.5 h: 12.8%

CC(=O)NCc1ccc(S(=O)(=O)NC(=O)c2ccc3c(c2)COC3)cc1
cytotoxicity at 70.5 h: -4.89%

O=C(c1cnc2n1CCCC2)N1CCCC1
cytotoxicity at 70.5 h: -2.75%

N#CCCN(CC1CCOC1)Cn1ccc(-c2cccs2)n1 (centres undefined)
cytotoxicity at 70.5 h: 8.39%

Cc1nc(C)c(C(=O)N2CCc3cc(F)ccc3C2C)o1 (centres undefined)
cytotoxicity at 70.5 h: -4.82%

CC(NCCn1cccn1)c1cc(F)ccc1F (centres undefined)
cytotoxicity at 70.5 h: -3.98%

CC(NCCn1cccn1)c1ccc(F)cc1F (centres undefined)
cytotoxicity at 70.5 h: -2.25%

CCCC(C)CS(=O)(=O)NCc1cccnc1N(C)C (centres undefined)
cytotoxicity at 70.5 h: -1.93%

CNc1ncc(C(=O)N2CCCC(Cc3ccccc3OC)C2)s1 (centres undefined)
cytotoxicity at 70.5 h: 20.4%

c1cc(CNCCC2CCCO2)ccn1 (centres undefined)
cytotoxicity at 70.5 h: 5.59%

N#Cc1ccc(CN2CCCCC2Cn2cncn2)c(F)c1 (centres undefined)
cytotoxicity at 70.5 h: 4.33%

CC1CCCN(S(=O)(=O)NCCN/C(O)=C2/N=CC=CC2=O)C1 (centres undefined)
cytotoxicity at 70.5 h: 0.429%

Cc1cc(C)n(CC(C)CNC(=O)N(C)Cc2cc(C)on2)n1 (centres undefined)
cytotoxicity at 70.5 h: -8.81%

Cc1cc(C)n(CC(C)CNC(=O)CCc2ccco2)n1 (centres undefined)
cytotoxicity at 70.5 h: -6.24%

Cc1cc(C)n(CC(C)CNC(=O)N(C)Cc2ccco2)n1 (centres undefined)
cytotoxicity at 70.5 h: -10.5%

CCN(Cc1cccc(C(N)=O)c1)c1ccccc1
cytotoxicity at 70.5 h: 12.2%

Cc1nn(C)c2ncc(NC(=O)N(C)Cc3cnn(C)c3)cc12
cytotoxicity at 70.5 h: -14%

CCN(CC1CCOC1)S(=O)(=O)Cc1ccccc1Cl (centres undefined)
cytotoxicity at 70.5 h: -6.21%

CC(=O)N(C)CC(=O)NC(CC(C)C)c1cccs1 (centres undefined)
cytotoxicity at 70.5 h: -5.7%

Cc1nc2ccccc2nc1CN1CCc2c(nc(C3CC3)n2C)C1
cytotoxicity at 70.5 h: -0.539%

COc1ccc(C(CC(=O)O)NC(=O)CCc2cccs2)cc1OC (centres undefined)
cytotoxicity at 70.5 h: 4.75%

CC(NC(=O)NCCn1ccnc1)c1nncn1C (centres undefined)
cytotoxicity at 70.5 h: 20.5%

N#Cc1cccc(OCc2ccoc2C(=O)N2CCCCCC2)c1
cytotoxicity at 70.5 h: -2.71%

Cc1csc(C2NC3(CCCC3)C(=O)N2CC2CC2)n1 (centres undefined)
cytotoxicity at 70.5 h: 4.39%

Cc1nc(CN2CCCc3cc(OC(F)(F)F)ccc32)oc1C
cytotoxicity at 70.5 h: 4.79%

COc1ccc2c(c1)CCCN2Cc1nc(C)c(C)o1
cytotoxicity at 70.5 h: -4.99%

CCc1nc(C2NC3(CCCC3)C(=O)N2CC2CC2)cs1 (centres undefined)
cytotoxicity at 70.5 h: 22.7%

O=C(c1ccc(CN2CCCCC2)cc1)N1CCCC1c1cccs1 (centres undefined)
cytotoxicity at 70.5 h: -0.233%

Cc1nc(C2NC3(CCCC3)C(=O)N2CC2CC2)cs1 (centres undefined)
cytotoxicity at 70.5 h: -5.61%

CCCN(Cc1ccccc1O)S(=O)(=O)N(C)CC
cytotoxicity at 70.5 h: -6.19%

CCC(C)S(=O)(=O)N(Cc1ccco1)Cc1ccccc1O (centres undefined)
cytotoxicity at 70.5 h: -10.4%

COCCN1CCC(CNC(=O)c2c[nH]c(=O)c(Cl)c2)CC1
cytotoxicity at 70.5 h: -10.5%

Cc1noc(CCNC(=O)NCC(=O)NCc2ccccc2)n1
cytotoxicity at 70.5 h: -4.83%

NS(=O)(=O)CCN1CCN(c2ccccc2O)CC1
cytotoxicity at 70.5 h: -0.407%

CC(=O)Nc1ccc(CNC(C)c2c(C)nn(C)c2C)cc1 (centres undefined)
cytotoxicity at 70.5 h: 13.1%

c1cnc(-c2nc(C3CCOC3)no2)cn1 (centres undefined)
cytotoxicity at 70.5 h: -3.44%

CN1CCN(C(=O)c2cccn2C)c2ccccc2C1
cytotoxicity at 70.5 h: -6.26%

O=C(NCCOc1ccc(Cl)cn1)NCCc1ccccn1
cytotoxicity at 70.5 h: -3.16%

Cc1cc(NC(=O)NCCOc2ccc(Cl)cn2)no1
cytotoxicity at 70.5 h: -3.43%

Cc1csc(C(C)(C)NCc2ncc(-c3ccc(F)cc3)o2)n1
cytotoxicity at 70.5 h: -4.53%

Cc1nn(C)c(C)c1C(C)NCc1ccsc1 (centres undefined)
cytotoxicity at 70.5 h: 3.61%

CSCc1cc(F)ccc1CNC(=O)N1CCC(CO)CC1
cytotoxicity at 70.5 h: -0.781%

CN1CCOC(CNCCOc2ccc(C#N)cc2)C1 (centres undefined)
cytotoxicity at 70.5 h: -5.57%

COc1ccnc(NC(Cc2ccccc2)C(=O)N(C)C)n1 (centres undefined)
cytotoxicity at 70.5 h: 5.68%

OCCCN1CCCC1c1nc(Cc2ccc(F)cc2)no1 (centres undefined)
cytotoxicity at 70.5 h: 8.04%

Fc1ccc(CNCCn2cccn2)cc1F
cytotoxicity at 70.5 h: 16.8%

O=C(CNC1CCc2ncnn2C1)NCCc1cccs1 (centres undefined)
cytotoxicity at 70.5 h: 2.68%

CCc1nc(C)c(C(C)N(C)CCOC)s1 (centres undefined)
cytotoxicity at 70.5 h: 10.1%

O=C(NCCNc1ccccn1)NC1CCCC1
cytotoxicity at 70.5 h: -4.33%

CN(Cc1ccc(Cl)cc1)C(=O)Nc1cnn(CC(N)=O)c1
cytotoxicity at 70.5 h: 8.79%

Cc1ccccc1CC(C)(C)NC(=O)c1cccc(OCC(N)=O)c1
cytotoxicity at 70.5 h: -4.51%

Cn1cc(C(=O)NCCC(=O)N2CCCCC2)c(-c2cccnc2)n1
cytotoxicity at 70.5 h: 6.62%

COc1cccc(NC(=O)N2CCC(O)(C(F)(F)F)C2)c1 (centres undefined)
cytotoxicity at 70.5 h: -2.52%

O=C(c1ccccc1O)N1CCn2c(nnc2C(F)(F)F)C1
cytotoxicity at 70.5 h: -1.13%

Cc1ccccc1CC(C)(C)NC(=O)CCOc1cccc(C(N)=O)c1
cytotoxicity at 70.5 h: 4.51%

COc1ccc(CN(C(=O)CCC(C)C)c2cnn(C)c2)c(OC)c1
cytotoxicity at 70.5 h: -4.57%

NS(=O)(=O)CCN1CCN(c2cc(F)ccc2F)CC1
cytotoxicity at 70.5 h: 10.3%

CCOCc1cccc(NCc2c[nH]nc2-c2cccnc2)c1
cytotoxicity at 70.5 h: -2.34%

C=C(C)CN1CCCC1c1nc(Cc2ccc(F)cc2)no1 (centres undefined)
cytotoxicity at 70.5 h: 12.4%

CCc1nc2n(n1)CC(NCCc1cccs1)CC2 (centres undefined)
cytotoxicity at 70.5 h: 3.55%

CCN1CCCN(S(=O)(=O)c2cc3ccccc3o2)CC1
cytotoxicity at 70.5 h: -4.88%

COCCCSc1ccc(NCc2ccc(C)cn2)cc1
cytotoxicity at 70.5 h: -6.35%

Cc1csc(CNCC2CCCN(C(=O)OC(C)(C)C)C2)n1 (centres undefined)
cytotoxicity at 70.5 h: -1.06%

Cc1nnc2n1CCN(CC(=O)NC(C)c1cc3ccccc3o1)C2 (centres undefined)
cytotoxicity at 70.5 h: 2.01%

CCCn1nnnc1CSc1nccn1C
cytotoxicity at 70.5 h: -7.23%

CN1CCN(C(C)(C)CNC(=O)C2CCCN2S(C)(=O)=O)CC1 (centres undefined)
cytotoxicity at 70.5 h: -6.25%

Cc1cc(CN2CCN(C(=O)C3(C#N)CCCCC3)CC2)on1
cytotoxicity at 70.5 h: -4.13%

N#Cc1ccc(F)c(CNC(=O)NC(CO)c2ccccc2)c1 (centres undefined)
cytotoxicity at 70.5 h: 13.7%

COC(=O)COc1cc(NCc2c(C)noc2C)c(Cl)cc1C
cytotoxicity at 70.5 h: -5.04%

Cc1ccc(Br)c(S(=O)(=O)NCc2ccnn2C)c1
cytotoxicity at 70.5 h: -5.04%

N#Cc1ccc(C(=O)O)nc1/C=C/c1cccc(Cl)c1
cytotoxicity at 70.5 h: 7.88%

CCC(CC)(CCO)CNC(=O)c1ccon1
cytotoxicity at 70.5 h: -8.6%

O=C(COc1ccccc1)NCC1CC1
cytotoxicity at 70.5 h: 9.36%

CCc1nnc(C2Cc3ccccc3CN2Cc2ncc(Cl)n2C)o1 (centres undefined)
cytotoxicity at 70.5 h: -6.23%

Cc1cc(CN2CCc3cncnc3C2)no1
cytotoxicity at 70.5 h: -8.98%

Oc1cccc(C2CN(c3nnc(C4CC4)s3)CCO2)c1 (centres undefined)
cytotoxicity at 70.5 h: -4.99%

CC(C)CCn1ccc(NC(=O)N2CCCC2C(C)(C)O)n1 (centres undefined)
cytotoxicity at 70.5 h: -6.63%

CCc1nc(CN2CCCN(CC(=O)N3CCOCC3)CC2)no1
cytotoxicity at 70.5 h: 41.7%

Cc1c(C(C)NC(=O)C2CCCC2)cnn1C (centres undefined)
cytotoxicity at 70.5 h: 36.2%

Cc1c(C(C)NC(=O)N2CCN(C3CCCC3)CC2)cnn1C (centres undefined)
cytotoxicity at 70.5 h: 54.3%

CCCNC(=O)CCNC(=O)c1sc2ccc(F)cc2c1C
cytotoxicity at 70.5 h: 31.9%

N#Cc1ccc(CN2C(=O)c3ccccc3CS2(=O)=O)c(F)c1
cytotoxicity at 70.5 h: 2.45%

CC(=O)NCCCNC(=O)Nc1ccccc1-n1nc(C)cc1C
cytotoxicity at 70.5 h: 0.874%

Cc1c(Br)cccc1C(=O)NCCC1CCCNC1 (centres undefined)
cytotoxicity at 70.5 h: 12%

c1cc2c(cc1C1(CNC3=NCCN3)CCCC1)OCCO2
cytotoxicity at 70.5 h: -3.87%

Clc1ccc(C2(CNC3=NCCN3)CCCC2)cc1
cytotoxicity at 70.5 h: 8.18%

Fc1ccc(C2(CNC3=NCCCN3)CCC2)cc1
cytotoxicity at 70.5 h: -0.346%
